In ChEMBL document CHEMBL1255402, “Staphylococcal cassette chromosome mec-like element in Macrococcus caseolyticus” (2010):
≈ marks a conversion by molar mass, not a printed value.

Experiments:
Assay type in all cases: functional
Conditions in all cases: Macrococcoides caseolyticum
Macrococcus caseolyticus [1] = assay: Antimicrobial activity against multidrug-resistant Macrococcus caseolyticus JCSC5402 containing plasmid pMCCL2 which carries transposon containing (mecA(m)-mecR1(m)-mecI(m)-blaZ(m)) complex isolated from chicken by agar dilution method
Macrococcus caseolyticus [2] = assay: Antimicrobial activity against multidrug-resistant Macrococcus caseolyticus JCSC7096 containing plasmid pMCCL2 which carries transposon containing (mecA(m)-mecR1(m)-mecI(m)-blaZ(m)) complex isolated from chicken by agar dilution method
Macrococcus caseolyticus [3] = assay: Antimicrobial activity against multidrug-resistant Macrococcus caseolyticus JCSC7528 containing plasmid pMCCL2 which carries transposon containing (mecA(m)-mecR1(m)-mecI(m)-blaZ(m)) complex isolated from chicken by agar dilution method
Macrococcus caseolyticus [4] = assay: Antimicrobial activity against Macrococcus caseolyticus ATCC 13548T by agar dilution method
Macrococcus caseolyticus [5] = assay: Antimicrobial activity against Macrococcus caseolyticus ATCC 51834 by agar dilution method
Macrococcus caseolyticus [6] = assay: Antimicrobial activity against Macrococcus caseolyticus ATCC 51835 by agar dilution method
Macrococcus caseolyticus [7] = assay: Antimicrobial activity against Macrococcus caseolyticus ATCC 29750 by agar dilution method

Q: How did the MIC (Macrococcus caseolyticus [1]) turn out when `Cc1onc(-c2ccccc2)c1C(=O)N[C@@H]1C(=O)N2[C@@H]1SC(C)(C)[C@@H]2C(=O)O` [OXACILLIN] was run?
A: Its MIC is 128 µg/mL (≈ 319 µM).

Q: And the MIC (Macrococcus caseolyticus [2])?
A: Its MIC is 64 µg/mL (≈ 159 µM).

Q: What about the MIC (Macrococcus caseolyticus [3]) of the same molecule?
A: The MIC was 32 µg/mL (≈ 79.7 µM).

Q: What about the MIC (Macrococcus caseolyticus [4]) of the same molecule?
A: Its MIC is 0.125 µg/mL (≈ 0.311 µM).

Q: What about the MIC (Macrococcus caseolyticus [5]) of the same molecule?
A: Its MIC is 0.125 µg/mL (≈ 0.311 µM).

Q: What about the MIC (Macrococcus caseolyticus [6]) of the same molecule?
A: The MIC was 0.25 µg/mL (≈ 0.623 µM).

Q: What about the MIC (Macrococcus caseolyticus [7]) of the same molecule?
A: Its MIC is 0.125 µg/mL (≈ 0.311 µM).
